SMILES strings stand for the structures.

Assay [1] addresses T1, Sigma intracellular receptor 2 (Rattus norvegicus, UniProt Q5U3Y7).
T1 sequence (Q5U3Y7 whole entry): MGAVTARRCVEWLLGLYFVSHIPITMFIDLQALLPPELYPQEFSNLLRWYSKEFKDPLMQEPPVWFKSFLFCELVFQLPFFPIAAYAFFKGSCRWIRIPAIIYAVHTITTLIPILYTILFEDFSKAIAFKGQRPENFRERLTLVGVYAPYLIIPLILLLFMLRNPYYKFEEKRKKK
The assay can be described thus: Displacement of [3H]-di-o-tolylguanidine from sigma2 receptor in rat liver membranes incubated for 120 mins by scintillation counting method.

The target in assay [2] is Sigma non-opioid intracellular receptor 1 (Cavia porcellus, UniProt Q60492). The assay can be described thus: Displacement of [3H]-(+)-pentazocine from sigma1 receptor in guinea pig brain cortex membranes incubated for 120 mins by scintillation counting method. A general note: Displacement assays read how much labelled ligand stays bound in the presence of the test substance.

Assay [3] addresses Kappa-type opioid receptor (Cavia porcellus, UniProt P41144). The assay can be described thus: Displacement of [3H]U-69,593 from KOR in guinea pig brain membranes incubated for 120 mins by scintillation counting method.
Assay [4] deals with Delta-type opioid receptor (Rattus norvegicus, UniProt P33533). The assay can be described thus: Displacement of [3H]DPDPE from DOR in rat brain membranes incubated for 120 mins by scintillation counting method.
Assay [5] has as its target Mu-type opioid receptor (Homo sapiens, UniProt P35372). Description: Agonist activity at human MOR expressed in CHOK1 cells assessed as reduction in forskolin-induced intracellular cAMP increase after 45 mins by HTRF analysis. (In TR-FRET formats the signal depends on donor and acceptor labels being close together.)
Assay [6] has as its target Mu-type opioid receptor (Cavia porcellus, UniProt P97266). Description: Displacement of [3H]DAMGO from MOR in guinea pig brain membranes incubated for 120 mins by scintillation counting method.

Sigma non-opioid intracellular receptor 1, sequence (Q60492 whole entry): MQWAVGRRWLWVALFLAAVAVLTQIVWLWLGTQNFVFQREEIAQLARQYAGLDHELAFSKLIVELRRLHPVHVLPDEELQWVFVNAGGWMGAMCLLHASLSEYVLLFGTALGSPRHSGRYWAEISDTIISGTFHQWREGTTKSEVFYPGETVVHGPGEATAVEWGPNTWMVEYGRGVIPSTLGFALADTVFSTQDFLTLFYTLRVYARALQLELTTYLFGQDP
Delta-type opioid receptor, sequence (P33533 whole entry): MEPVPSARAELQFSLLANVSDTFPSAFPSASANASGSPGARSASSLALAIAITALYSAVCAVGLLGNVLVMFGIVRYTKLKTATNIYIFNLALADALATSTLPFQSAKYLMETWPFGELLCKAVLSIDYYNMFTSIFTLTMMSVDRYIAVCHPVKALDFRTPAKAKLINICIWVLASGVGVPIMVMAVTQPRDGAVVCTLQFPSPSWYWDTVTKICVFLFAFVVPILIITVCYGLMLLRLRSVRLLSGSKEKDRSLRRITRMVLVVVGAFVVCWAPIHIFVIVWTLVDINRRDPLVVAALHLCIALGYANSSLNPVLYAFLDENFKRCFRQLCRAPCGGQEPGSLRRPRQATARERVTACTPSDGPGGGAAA
Kappa-type opioid receptor, sequence (P41144 whole entry): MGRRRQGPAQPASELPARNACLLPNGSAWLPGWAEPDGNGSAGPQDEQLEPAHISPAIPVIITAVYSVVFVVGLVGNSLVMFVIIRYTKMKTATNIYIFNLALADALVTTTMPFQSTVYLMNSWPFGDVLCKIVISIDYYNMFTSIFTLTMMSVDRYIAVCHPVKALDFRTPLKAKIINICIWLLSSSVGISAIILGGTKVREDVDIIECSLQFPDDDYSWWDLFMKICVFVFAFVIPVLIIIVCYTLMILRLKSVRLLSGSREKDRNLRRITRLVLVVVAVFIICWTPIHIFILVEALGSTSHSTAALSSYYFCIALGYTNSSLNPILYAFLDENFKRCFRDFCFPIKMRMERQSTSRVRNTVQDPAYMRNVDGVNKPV
Mu-type opioid receptor (Homo sapiens, UniProt P35372), sequence (P35372 whole entry): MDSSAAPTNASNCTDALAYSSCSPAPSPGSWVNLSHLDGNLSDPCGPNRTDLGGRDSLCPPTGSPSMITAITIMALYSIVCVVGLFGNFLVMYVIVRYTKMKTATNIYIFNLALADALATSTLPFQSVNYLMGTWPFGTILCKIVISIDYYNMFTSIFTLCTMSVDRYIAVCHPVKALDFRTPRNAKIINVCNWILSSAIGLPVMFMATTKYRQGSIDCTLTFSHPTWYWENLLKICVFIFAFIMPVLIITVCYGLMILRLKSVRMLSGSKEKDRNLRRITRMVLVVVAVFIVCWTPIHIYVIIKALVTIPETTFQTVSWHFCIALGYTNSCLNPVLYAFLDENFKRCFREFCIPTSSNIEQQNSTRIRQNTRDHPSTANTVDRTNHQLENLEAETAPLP
Mu-type opioid receptor (Cavia porcellus, UniProt P97266), sequence (P97266 whole entry): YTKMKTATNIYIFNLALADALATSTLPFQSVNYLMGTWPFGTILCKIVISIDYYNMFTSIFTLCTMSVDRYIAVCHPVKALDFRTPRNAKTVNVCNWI

With `Cc1ccc(CNC2CCC3(CC2)O[C@H](CCF)Cc2ccccc23)c(C)c1` (stereo partly specified), the Ki (commonly the dissociation constant of the complex between target and ligand, obtained from inhibition or displacement) in assay [1] was 0.302 µM; in assay [2] it was more than 1 µM.
In assay [2], `CCOC(=O)C[C@@H]1Cc2ccccc2C2(CCC(NCc3ccc(C)cc3C)CC2)O1` (stereo partly specified) yielded a Ki of more than 1 µM.
As to `CCOC(=O)C[C@H]1Cc2ccccc2C2(CCC(N3CCN(C4CCCCC4)CC3)CC2)O1` (stereo partly specified), the Ki was 0.012 µM in assay [2], more than 1 µM in assay [3] and more than 1 µM in assay [4]. Moreover, the EC50 – broadly, the midpoint of the concentration-response curve – in assay [5] was more than 10 µM.
Regarding `COc1cc2c(cc1OC)CN(C1CCC3(CC1)O[C@H](CCO)Cc1ccccc13)CC2` (stereo partly specified), the Ki in assay [1] and in assay [2] was more than 1 µM each time.
For `FCC[C@@H]1Cc2ccccc2C2(CCC(N3CCN(C4CCCCC4)CC3)CC2)O1` (stereo partly specified), the Ki in assay [2] is 0.012 µM; in assay [6] it was more than 1 µM; in assay [3], more than 1 µM; in assay [4], more than 1 µM.
`COc1cc2c(cc1OC)CN(C1CCC3(CC1)O[C@@H](CCF)Cc1ccccc13)CC2` (stereo partly specified): the values for the Ki in assay [1] and in assay [2] were 0.505 µM and more than 1 µM, respectively.
`CCOC(=O)C[C@H]1Cc2ccccc2C2(CCC(N3CCc4cc(OC)c(OC)cc4C3)CC2)O1` (stereo partly specified) returned a Ki in assay [2] of more than 1 µM.
For the molecule `OCC[C@H]1Cc2ccccc2C2(CCC(N3CCN(C4CCCCC4)CC3)CC2)O1` (stereo partly specified), the affinity in assay [1], expressed as Ki, was 0.505 µM.
In the case of `O[C@H]1Cc2ccccc2C2(CCC(N3CCN(C4CCCCC4)CC3)CC2)O1` (stereo partly specified), the Ki in assay [6] and in assay [4] was more than 1 µM each time. The EC50 in assay [5] is more than 10 µM.
Molecule `FCC[C@H]1Cc2ccccc2C2(CCC(N3CCN(C4CCCCC4)CC3)CC2)O1` (stereo partly specified) gave a Ki in assay [3] of more than 1 µM.
Take `CO[C@@H]1Cc2ccccc2C2(CCC(NCc3ccccc3)CC2)O1` (stereo partly specified): in assay [1], the Ki is more than 1 µM.
The same measure, in the same setting: in the case of `CO[C@H]1Cc2ccccc2C2(CCC(NCc3ccccc3)CC2)O1` (stereo partly specified) it was more than 1 µM.
For the molecule `CO[C@H]1Cc2ccccc2C2(CCC(NCc3ccc(C)cc3C)CC2)O1` (stereo partly specified), in assay [2], the Ki is more than 1 µM.
In assay [2], `COc1cc2c(cc1OC)CN(C1CCC3(CC1)O[C@@H](OC)Cc1ccccc13)CC2` (stereo partly specified) gave a Ki of more than 1 µM.
On the same count and under the same terms, in the case of `Cc1ccc(CNC2CCC3(CC2)O[C@@H](O)Cc2ccccc23)c(C)c1` (stereo partly specified) it was more than 1 µM.
In the case of `O[C@@H]1Cc2ccccc2C2(CCC(N3CCN(C4CCCCC4)CC3)CC2)O1` (stereo partly specified), the Ki in assay [1] amounted to 0.302 µM.
In the case of `COc1cc2c(cc1OC)CN(C1CCC3(CC1)O[C@@H](O)Cc1ccccc13)CC2` (stereo partly specified), the Ki in assay [1] and in assay [2] was more than 1 µM throughout.
Turning to `CCOC(=O)C[C@@H]1Cc2ccccc2C2(CCC(N3CCN(C4CCCCC4)CC3)CC2)O1` (stereo partly specified), in assay [2], the Ki came to 0.012 µM.
For the molecule `CCOC(=O)C[C@@H]1Cc2ccccc2C2(CCC(N3CCc4cc(OC)c(OC)cc4C3)CC2)O1` (stereo partly specified), the inhibition constant Ki in assay [1] and in assay [2] was more than 1 µM throughout.
`Cc1ccc(CNC2CCC3(CC2)O[C@H](CCO)Cc2ccccc23)c(C)c1` (stereo partly specified) yielded a Ki in assay [2] of more than 1 µM.
Consider `COc1cc2c(cc1OC)CN(C1CCC3(CC1)O[C@@H](CCO)Cc1ccccc13)CC2` (stereo partly specified), for which the Ki in assay [1] and in assay [2] was more than 1 µM in each case.
Regarding `Cc1ccc(CNC2CCC3(CC2)O[C@@H](CCF)Cc2ccccc23)c(C)c1` (stereo partly specified), the Ki in assay [1] is more than 1 µM.
Still for that read-out and setting: in the case of `COc1cc2c(cc1OC)CN(C1CCC3(CC1)O[C@H](CCF)Cc1ccccc13)CC2` (stereo partly specified) it was more than 1 µM.
For the molecule `CO[C@@H]1Cc2ccccc2C2(CCC(NCCCc3cn(-c4ccc(F)cc4)c4ccccc34)CC2)O1` (stereo partly specified), the Ki in assay [1] and in assay [2] was more than 1 µM throughout.
For `CO[C@H]1Cc2ccccc2C2(CCC(NCCCc3cn(-c4ccc(F)cc4)c4ccccc34)CC2)O1` (stereo partly specified), the inhibition constant (Ki) in assay [1] was more than 1 µM.
As to `CO[C@@H]1Cc2ccccc2C2(CCC(NC3CCc4ccccc4CC3)CC2)O1` (stereo partly specified), the Ki in assay [2] is more than 1 µM.

Values taken from BindingDB's records for doi:10.1021/acs.jmedchem.8b01183 (2018).
